Experimental data reported in patent US7494997B2, “Amide derivative” (Nippon Shinyaku Co., Ltd., priority 2002, dated 2009).
Where two headings read alike, the source gives them in different places.

Tests used:
[1] = tested on: K562 cells; assay: Cell growth inhibitory effect, K562 cells (WST-8, 72 hours); conditions: for IC50: read-out: K562 cells (IC50 value: μM); for Ratio (U937 cells/K562 cells): ratio of IC50 values U937 cells/K562 cells
[2] = tested on: U937 cells; assay: Cell growth inhibitory effect, U937 cells (WST-8, 72 hours); conditions: Homo sapiens, U-937, 72 h, read-out: U937 cells (IC50 value: μM)
[3] = BCR-ABL positive K562 cells, 72 hours, cell growth inhibition

melting point | IC50 ([1]; Homo sapiens, K562, 72 h) | IC50 [2] | IC50 [1, 3] | SMILES | Ratio (U937 cells/K562 cells) [1]
184 to 186 °C (dec.) |  |  |  | Cc1ccc(NC(=O)c2ccc(CN3CCN(C)CC3)c(Br)c2)cc1Nc1nccc(-c2cncnc2)n1.Cl | 
184 to 187 °C |  |  |  | Cc1ccc(NC(=O)c2ccc(CN3CCN(C)CC3)c(C(F)(F)F)c2)cc1Nc1nccc(-c2cncc(Br)c2)n1.Cl | 
139 to 141 °C |  |  |  | Cc1ccc(NC(=O)c2ccc(CN3CCN(C)CC3)c(Br)c2)cc1Nc1cncc(-c2cccnc2)c1 (hydrate or solvate) [Example 17, 3-bromo-4-(4-methylpiperazin-1-ylmethyl)-N-{4-methyl-3-[3-(3-pyridyl)pyridin-5-ylamino]phenyl}benzamide] | 
192 to 193 °C |  |  |  | Cc1ccc(NC(=O)c2ccc(CN3CCN(C)CC3)c(Br)c2)cc1Nc1cncc(-c2cccnc2)n1 (hydrate or solvate) [Example 19, 3-bromo-4-(4-methylpiperazin-1-ylmethyl)-N-{4-methyl-3-[2-(3-pyridyl)pyrazin-6-ylamino]phenyl}benzamide] | 
219 to 221 °C |  |  |  | Cc1ccc(NC(=O)c2ccc(CN3CCN(C)CC3)c(Br)c2)cc1Nc1nncc(-c2cccnc2)n1 (hydrate or solvate) [Example 20, 3-bromo-4-(4-methylpiperazin-1-ylmethyl)-N-{4-methyl-3-[5-(3-pyridyl)-1,2,4-triazin-3-ylamino]phenyl}benzamide] | 
184 to 186 °C |  |  |  | Cc1ccc(NC(=O)c2ccc(CN3CCN(C)CC3)c([N+](=O)[O-])c2)cc1Nc1nccc(-c2cccnc2)n1 (hydrate or solvate) [Example 22, 4-(4-methylpiperazin-1-ylmethyl)-3-nitro-N-{4-methyl-3-[4-(3-pyridyl)pyrimidin-2-ylamino]phenyl}benzamide] | 
202 to 203 °C |  |  |  | CCN1CCN(Cc2ccc(C(=O)Nc3ccc(C)c(Nc4nccc(-c5cccnc5)n4)c3)cc2Br)CC1 (hydrate or solvate) [Example 27, 3-bromo-4-(4-ethylpiperazin-1-ylmethyl)-N-{4-methyl-3-[4-(3-pyridyl)pyrimidin-2-ylamino]phenyl}benzamide] | 
219 to 222 °C (dec.) |  |  |  | Cc1ccc(NC(=O)c2ccc(CN3CCN(C)CC3)c(Br)c2)cc1Nc1nccc(-c2ccc(Cl)nc2)n1 [Example 8, 3-bromo-4-(4-methylpiperazin-1-ylmethyl)-N-{3-[4-(6-chloropyridin-3-yl)pyrimidin-2-ylamino]-4-methylphenyl}benzamide] | 
185 to 187 °C (dec.) |  |  |  | Cc1ccc(NC(=O)c2ccc(CN3CCN(C)CC3)c(Br)c2)cc1Nc1nccc(-c2cccnn2)n1 [Example 12, 3-bromo-4-(4-methylpiperazin-1-ylmethyl)-N-{4-methyl-3-[4-(3-pyridazinyl)pyrimidin-2-ylamino]phenyl}benzamide] | 
244 to 245 °C (dec.) | 0.003 µM | > 10 µM |  | Cc1ccc(NC(=O)c2ccc(CN3CCN(C)CC3)c(Br)c2)cc1Nc1cc(-c2cccnc2)ccn1 [Example 14, 3-bromo-4-(4-methylpiperazin-1-ylmethyl)-N-{4-methyl-3-[4-(3-pyridyl)pyridin-2-ylamino]phenyl}benzamide] | >3333.3
244 to 246 °C (dec.) | 0.0048 µM | 9.1 µM |  | Cc1ccc(NC(=O)c2ccc(CN3CCN(C)CC3)c(Br)c2)cc1Nc1cc(-c2cncnc2)ccn1 [Example 15, 3-bromo-4-(4-methylpiperazin-1-ylmethyl)-N-{4-methyl-3-[4-(5-pyrimidinyl)pyridin-2-ylamino]phenyl}benzamide] | 1895.8
174 to 175 °C |  |  |  | Cc1ccc(NC(=O)c2ccc(CN3CCN(C)CC3)c(Br)c2)cc1Nc1cccc(-c2cccnc2)c1 [Example 18, 3-bromo-4-(4-methylpiperazin-1-ylmethyl)-N-{4-methyl-3-[3-(3-pyridyl)phenylamino]phenyl}benzamide] | 
 | 0.06 µM | 2.4 µM |  | Cc1ccc(NC(=O)c2ccc(CN3CCN(C)CC3)c(Br)c2)cc1Nc1cncc(-c2cccnc2)n1 [Example 19, 3-bromo-4-(4-methylpiperazin-1-ylmethyl)-N-{4-methyl-3-[2-(3-pyridyl)pyrazin-6-ylamino]phenyl}benzamide] | 40.0
 | 0.015 µM | 1.82 µM |  | Cc1ccc(NC(=O)c2ccc(CN3CCN(C)CC3)c(Br)c2)cc1Nc1nncc(-c2cccnc2)n1 [Example 20, 3-bromo-4-(4-methylpiperazin-1-ylmethyl)-N-{4-methyl-3-[5-(3-pyridyl)-1,2,4-triazin-3-ylamino]phenyl}benzamide] | 121.3
192 to 193 °C | 0.0053 µM | > 10 µM |  | Cc1cc(C(=O)Nc2ccc(C)c(Nc3nccc(-c4cccnc4)n3)c2)ccc1CN1CCN(C)CC1 [Example 21, 3-methyl-4-(4-methylpiperazin-1-ylmethyl)-N-{4-methyl-3-[4-(3-pyridyl)pyrimidin-2-ylamino]phenyl}benzamide] | >1886.8
 | 0.0032 µM | 6.56 µM |  | Cc1ccc(NC(=O)c2ccc(CN3CCN(C)CC3)c([N+](=O)[O-])c2)cc1Nc1nccc(-c2cccnc2)n1 [Example 22, 4-(4-methylpiperazin-1-ylmethyl)-3-nitro-N-{4-methyl-3-[4-(3-pyridyl)pyrimidin-2-ylamino]phenyl}benzamide] | 2050.0
171 to 172 °C (dec.) | 0.0094 µM | > 10 µM |  | COc1cc(C(=O)Nc2ccc(C)c(Nc3nccc(-c4cccnc4)n3)c2)ccc1CN1CCN(C)CC1 [Example 23, 3-methoxy-4-(4-methylpiperazin-1-ylmethyl)-N-{4-methyl-3-[4-(3-pyridyl)pyrimidin-2-ylamino]phenyl}benzamide] | >1063.8
227 to 229 °C | 0.0015 µM | 7.29 µM |  | Cc1ccc(NC(=O)c2cc(Br)c(CN3CCN(C)CC3)c(Br)c2)cc1Nc1nccc(-c2cccnc2)n1 [Example 24, 3,5-dibromo-4-(4-methylpiperazin-1-ylmethyl)-N-{4-methyl-3-[4-(3-pyridyl)pyrimidin-2-ylamino]phenyl}benzamide] | 4860.0
210 to 214 °C (dec.) |  |  |  | Cc1ccc(NC(=O)c2ccc(CN3CCN(C)CC3)c(C(=O)N(C)C)c2)cc1Nc1nccc(-c2cccnc2)n1 [Example 26, 3-(N,N-dimethylcarbamoyl)-4-(4-methylpiperazin-1-ylmethyl)-N-{4-methyl-3-[4-(3-pyridyl)pyrimidin-2-ylamino]phenyl}benzamide] | 
 | 0.00049 µM | 7.16 µM |  | CCN1CCN(Cc2ccc(C(=O)Nc3ccc(C)c(Nc4nccc(-c5cccnc5)n4)c3)cc2Br)CC1 [Example 27, 3-bromo-4-(4-ethylpiperazin-1-ylmethyl)-N-{4-methyl-3-[4-(3-pyridyl)pyrimidin-2-ylamino]phenyl}benzamide] | 14612.2
158 to 159 °C |  |  |  | Cc1ccc(NC(=O)c2ccc(CN3CCCCC3)c(Br)c2)cc1Nc1nccc(-c2cccnc2)n1 [Example 32, 3-bromo-4-(piperidinomethyl)-N-{4-methyl-3-[4-(3-pyridyl)pyrimidin-2-ylamino]phenyl}benzamide] | 
204 to 205 °C |  |  |  | Cc1ccc(NC(=O)c2ccc(CN3C[C@@H](C)N[C@@H](C)C3)c(Br)c2)cc1Nc1nccc(-c2cccnc2)n1 [Example 34, 3-bromo-4-(cis-3,5-dimethylpiperazin-1-ylmethyl)-N-{4-methyl-3-[4-(3-pyridyl)pyrimidin-2-ylamino]phenyl}benzamide] | 
 |  |  | 0.0041 µM | Cc1ccc(NC(=O)c2ccc(CN3CCNCC3)c(Br)c2)cc1Nc1nccc(-c2cncnc2)n1 [Example 36, 3-bromo-4-(1-piperazinylmethyl)-N-{4-methyl-3-[4-(5-pyrimidinyl)pyrimidin-2-ylamino]phenyl}benzamide] | 
 |  |  | 0.00093 µM | Cc1ccc(NC(=O)c2ccc(CN3CCNCC3)c(C(F)(F)F)c2)cc1Nc1nccc(-c2cncnc2)n1 [Example 38, 4-(1-piperazinylmethyl)-3-trifluoromethyl-N-{4-methyl-3-[4-(5-pyrimidinyl)pyrimidin-2-ylamino]phenyl}benzamide] | 

SMILES | melting point | IC50 ([1]; Homo sapiens, K562, 72 h) | IC50 [2] | IC50 [1, 3] | Ratio (U937 cells/K562 cells) [1]
CS(=O)(=O)O.Cc1ccc(NC(=O)c2ccc(CN3CCN(C)CC3)c(C(F)(F)F)c2)cc1Nc1nccc(-c2cncnc2)n1 | 171 to 173 °C |  |  |  | 
Cc1ccc(NC(=O)c2ccc(CN3CCN(C)CC3)c(Br)c2)cc1Nc1nccc(-c2cccnc2)n1 [Example 1, 3-bromo-4-(4-methylpiperazin-1-ylmethyl)-N-{4-methyl-3-[4-(3-pyridyl)pyrimidin-2-ylamino]phenyl}benzamide] | 202 to 203 °C (dec.) | 0.0022 µM | 4.8 µM |  | 
Cc1ccc(NC(=O)c2ccc(CN3CCN(C)CC3)c(F)c2)cc1Nc1nccc(-c2cccnc2)n1 [Example 4, 3-fluoro-4-(4-methylpiperazin-1-ylmethyl)-N-{4-methyl-3-[4-(3-pyridyl)pyrimidin-2-ylamino]phenyl}benzamide] | 197 to 199 °C (dec.) | 0.033 µM | 12.4 µM |  | 
Cc1ccc(NC(=O)c2ccc(CN3CCN(C)CC3)c(C(F)(F)F)c2)cc1Nc1nccc(-c2cccnc2)n1 [Example 5, 4-(4-methylpiperazin-1-ylmethyl)-3-trifluoromethyl-N-{4-methyl-3-[4-(3-pyridyl)pyrimidin-2-ylamino]phenyl}benzamide] | 182 to 183 °C (dec.) | 0.0008 µM | 3.99 µM |  | 
Cc1ccc(NC(=O)c2ccc(CN3CCN(C)CC3)c(C(F)(F)F)c2)cc1Nc1nccc(-c2cncnc2)n1 [Example 6, 4-(4-methylpiperazin-1-ylmethyl)-3-trifluoromethyl-N-{4-methyl-3-[4-(5-pyrimidinyl)pyrimidin-2-ylamino]phenyl}benzamide] | 231 to 233 °C (dec.) | 0.0005 µM | 5.39 µM |  | 
